Experimental data taken from US8143237B2, “Anti-cancer drugs, and uses relating for malignant melanoma and other cancers” (Kasina Laila Innova Pharmaceuticals Private Limited, priority 2009, dated 2012).
≈ marks a conversion by molar mass, not a printed value. Entries after “also recorded” stand apart in the source; their conditions may differ. Like-named read-outs stand apart in the source and are kept apart here.

Assays:
[1] = test system: mouse malignant melanoma B16 F0 cells; test: MTT based cell proliferation assay, B16 F0 cells; conditions: for IC50: Mus musculus, B16F0, 72 h, MTT, three days incubation, read-out: Cell proliferation inhibition in B16F0 cells, IC50
Description: The cytotoxic efficacies of the various selenopheno triazene compounds (compounds 1 to 16) was evaluated in both human malignant melanoma A375 cells and mouse malignant melanoma B16 F0 cells by MTT cell proliferation assay kit (Roche Applied Sciences, Germany). The assay was carried out according to the instruction provided by the vendor. Briefly, equal numbers of cells was plated in 96-well flat-bottomed plates and were incubated with both DTIC and the test compounds (compounds 1 to 16) at various concentrations for a period of three days. […] Finally, the cells were solubilized by adding solubilizing solution and allowed to incubate at 37° C. overnight. After complete solubilization of the formazan crystals, the absorbance was read at 540 nm in a microplate reader (BioRad, USA).

[2] = test system: B16 F0 melanoma xenograft; test: B16 F0 melanoma xenograft model of C57B6J mice; assay type: in vivo, mouse; conditions: fourteen days, tumor weight
Description: In vivo efficacy of compound 1 against melanoma growth was evaluated in B 16 F0 melanoma xenograft model of C57B6J mice. C57B6J mice of 6 weeks age (body weight 18-22 g) were purchased from National Institute of Nutrition (NIN), Hyderabad (India). Animals study protocols were approved by Institutional Ethics Committee (IAEC). All the studies were performed in compliance with the Committee for the Purpose of Control and Supervision of Experiments on Animals (CPCSEA) guidelines and OECD guidelines. Animals were allowed free access to standard feed and provided charcoal filtered and UV exposed water ad libitum. The animals were maintained at a controlled temperature (24-26° C.), humidity (45-70%), and 12 h/12 h of light/dark cycle.
To induce the melanoma tumor formation, sub-confluent B16F0 cells were harvested by brief trypsinization and 1×10^6 cells were injected subcutaneously in 0.2 ml phosphate-buffered saline. Drug treatment was started after development of palpable tumors (3-5 days after implantation of the cells). Drugs were prepared in phosphate-buffered saline (10% DMSO, v/v) and either 75 mg/kg of DTIC or 25 mg/kg of compound 1 was administered daily through intra-peritoneal route. Vehicle treated control animals received only 10% DMSO in phosphate buffered saline. After fourteen days of treatment, the animals were sacrificed by CO2 inhalation and tumors were excised and weighed.

[3] = test system: A375 human melanoma xenograft; test: A375 human melanoma xenograft model of nu/nu BALB/c nude mice; assay type: in vivo, mouse; conditions: 25 mg/kg daily intra-peritoneal, twenty one days, tumor volume, p=0.04322
Description: To further substantiate the anti-melanoma efficacy of the Compound 1, this compound was tested for its anti-melanoma efficacy in A375 human melanoma xenograft model of nu/nu BALB/c nude mice. The animals of 6-8 weeks age (body weight 18-22 g) were used in this study. Animals study protocols were approved by Institutional Ethics Committee (IAEC). All the studies were performed in compliance with the Committee for the Purpose of Control and Supervision of Experiments on Animals (CPCSEA) guidelines and OECD guidelines. Animals were allowed free access to sterile standard rodent diet and provided with charcoal filtered and UV exposed water ad libitum. The animals were housed in a sterile room and were located individually in ventilated cages. The room was maintained at a controlled temperature (24-26° C.), humidity (45-70%), and 12 h/12 h of light/dark cycle.
To induce the melanoma tumor, sub-confluent A375 human melanoma cells were harvested by brief trypsinization and 1×10^6 cells were injected subcutaneously in 0.2 ml phosphate-buffered saline. Drug treatment was started after development of palpable tumors (6-7 days after implantation of the cells). At this point the tumor take rate was 100%. […] After twenty one days of treatment, the animals were sacrificed by CO2 inhalation and tumors growth was measured by the following formula (Friedman H S et al., Mol Cancer Ther 2002; 1:943-948). […]

[4] = test system: Human umbilical vein endothelial cells (HUVEC); test: Endothelial cell migration assay; assay type: cell-based; conditions: 5 and 10 μg/ml, 18 h
Description: The methodology of endothelial cell migration assay was essentially the same as described earlier with some modifications (Sengupta, K et al., Mol. Cancer. Res. 2004; 2: 150-158.). FALCON™ Cell Culture inserts (Becton Dickinson, USA) with 8 μm-pores in their PET membrane was coated with 0.1 mg/ml of collagen. Human umbilical vein endothelial cells (HUVEC) were added to the cell culture inserts (Becton Dickinson) at a density of 5×10^4 cells/insert. Cells were allowed to migrate through the insert for 18 h in presence of different concentrations of either DTIC or Compound 1. The control culture containing migration assembly received only 0.1% DMSO. […] The membranes of the inserts were then mounted on glass slides. Cells migrated through the membrane pores were counted in 20 random fields under Nikon Eclipse TS 100 microscope at 20× objective.

[5] = cited from earlier work
malignant melanoma = conditions: single-agent, malignant melanoma patients; cited from earlier work
human plasma protein = conditions: at therapeutic concentrations; cited from earlier work
[6] = patient with renal and hepatic dysfunctions

In the case of `Cc1[se]c(C(N)=O)cc1/N=N/N(C)C` [Compound 1, 4-[(dimethylamino)diazenyl]-5-methylselenophene-2-carboxamide], the “Potency of inhibition relative to Dacarbazine, mouse melanoma B16 cells” value ([1]; MTT IC50 comparison) is reported as 5 times, the IC50 [1] is reported as 46.6 µg/mL (≈ 180 µM) and the melting point is reported as 170 to 172 °C. The “Inhibition in tumor growth, mouse melanoma xenograft model of C57B6J mice” value ([2]; 25 mg/kg daily intra-peritoneal) was 31.2%, the “Inhibition of melanoma tumor growth, A375 human melanoma xenograft model of nude mice” value [3] was 46.52% and the “Migration of human endothelial cells (HUVEC)” value [4] was “significant inhibition of migration; also recorded: inhibited endothelial cell migration”.

In the case of `CN(C)N=Nc1[nH]cnc1C(N)=O` [DTIC, 5-(3,3-dimethyl-1-trizeno)-imidazole-4-carboxamide, reference compound], the “Initial half life of disappearance from plasma” value ([5]; biphasic disappearance) is listed as 19 min, the “Average cumulative excretion of unchanged drug in the urine” value ([5]; in six hours) is listed as 40 % of the injected dose and the “Initial half life of disappearance from plasma” value [5, 6] is listed as 55 min. For the same compound, the “Terminal half life of disappearance from plasma” value [5, 6] was 432 min, the Complete responses (malignant melanoma) was “less than 5 % of patients” and the “Binding to human plasma protein” value (human plasma protein) was “not appreciably bound”. For the same compound, the IC50 [1] was 325 µg/mL (≈ 1790 µM) and the “Inhibition in tumor growth, mouse melanoma xenograft model of C57B6J mice” value ([2]; 75 mg/kg daily intra-peritoneal) was 17%.
